Drawing on the NIST ThermoML archive (doi:10.1021/acs.jced.9b00726), this text covers activity coefficient for nine molecules.

The data set is described as follows: activity coefficient (dimensionless); of the first substance listed, at infinite dilution; xn = mol fraction of the nth substance listed. The settings on record: 100 kPa, Liquid, inert gas stripping, x1 = 0.

Values joined by “and” are separate entries in the source; they are usually repeats but may differ in a detail not shown here. Equal entries are not always repeated. Numbers after ± are expanded uncertainties.

For the molecule `CC(=O)C(C)C` [3-methyl-2-butanone] + O, the activity coefficient was 64.4 ± 8.2 (278.15 K); 72.9 ± 7.2 (288.15 K); 91 ± 8.1 (298.15 K); 102 ± 9.1 (308.15 K); 112 ± 9.8 (318.15 K); 119 ± 10 (328.15 K).

Take `CCC(=O)CC` [pentan-3-one] + O: the activity coefficient is 67.9 ± 8.7 (273.35 K); 86.9 ± 8.7 (283.15 K); 92.8 ± 8.3 (288.15 K); 101 ± 9 (293.15 K); 114 and 112 (298.15 K); 118 ± 11 (303.15 K). The activity coefficient reads like this: (308.15 K) 129 ± 12; (313.15 K) 130 ± 12; (318.15 K) 137 and 133; (323.15 K) 142 ± 13; (333.15 K) 148 ± 13.

On to `CCC(=O)C(C)C` [2-methyl-3-pentanone] + O, for which the activity coefficient by setting is: (278.15 K) 269 ± 58; (288.15 K) 329 ± 71; (298.15 K) 391 ± 51; (308.15 K) 442 ± 58; (318.15 K) 467 ± 61; (328.15 K) 491 ± 64.

As to `CCC(C)C(C)=O` (stereo unspecified) [3-methyl-2-pentanone] + O, the activity coefficient reads like this: (278.15 K) 216 ± 47; (288.15 K) 268 ± 58; (298.15 K) 296 ± 48; (308.15 K) 332 ± 43; (318.15 K) 358 ± 46; (328.15 K) 380 ± 49.

In the case of `CC(=O)CC(C)C` [4-methylpentan-2-one] + O, the activity coefficient is, setting by setting: (278.15 K) 239 ± 24; (288.15 K) 277 and 287; (298.15 K) 327 ± 30; (308.15 K) 370 ± 34; (318.15 K) 405 ± 37; (328.15 K) 410 ± 38.

In the case of `CCCC(C)=O` [pentan-2-one] + O, the activity coefficient came to 61.4 ± 6.1 (273.17 K); 67.2 ± 6.7 (278.15 K); 78.7 ± 7 (288.15 K); 95.9 ± 8.6 (298.15 K); 107 ± 9.4 (308.15 K); 121 ± 11 (318.15 K). Also, the activity coefficient by setting is: (328.15 K) 129 ± 11; (333.15 K) 130 ± 11.

As for `CC(=O)C(C)(C)C` [3,3-dimethyl-2-butanone] + O, the activity coefficient reads like this: (278.15 K) 217 ± 20; (288.15 K) 272 ± 25; (298.15 K) 321 ± 29; (308.15 K) 345 ± 32; (318.15 K) 370 ± 34; (328.15 K) 379 ± 35.

Consider `CCCCC(C)=O` [2-hexanone] + O, for which the activity coefficient is 257 ± 33 (278.15 K); 331 ± 34 (288.15 K); 384 ± 35 (298.15 K); 422 ± 39 (308.15 K); 471 ± 61 (318.15 K); 456 ± 42 (328.15 K).

For `CCCC(=O)CC` [3-hexanone] + O, the activity coefficient was found to be 260 ± 34 (278.15 K); 340 ± 44 (288.15 K); 418 ± 43 (298.15 K); 458 ± 42 (308.15 K); 515 ± 47 (319.15 K); 524 ± 48 (328.15 K).
